Results reported in US20070166367A1, “Adept or gdept producing acetaldehyde” (priority 2004, published 2007).

Key:
Daudi = assay: in vitro acetaldehyde and cisplatin toxicity assay; type: cell-based
Procedure: (§1) Standard tissue culture techniques were used to maintain Hela, Daudi, Jurkat, CMT-64 cells in flasks in DMEM+10% FCS in a 37° C. incubator.
(§2) Cell lines subcloned into 25-cm^2 flasks and incubated in media containing dilutions of acetaldehyde, cisplatin or both. Flasks remained sealed during incubation and the media and acetaldehyde/cisplatin were replaced daily. Viable cell counts were made using Trypan blue exclusion and a standard haemocytometer.

[1] = in vitro acetaldehyde and cisplatin toxicity assay; type: cell-based; conditions: human, Daudi cells; higher concentrations (500 uM and 1 mM), day 3, FIG. 1; read-out: viable cell numbers as % of starting number
Procedure: as §1, §2

CMT-64 = assay: in vitro acetaldehyde and cisplatin toxicity assay; type: cell-based
Procedure: as §1, §2

[2] = during alcohol metabolism; cited from earlier work
Daudi lymphoma cells = assay: chronic exposure of Daudi lymphoma cells to acetaldehyde in tissue culture; type: cell-based
Procedure: The effect of acetaldehyde on Daudi lymphoma cells was investigated. Chronic exposure to acetaldehyde of Daudi lymphoma cells in tissue culture was investigated with the media and acetaldehyde replaced every 24 hours, with the lids either tight closed or slightly open (the norm for tissue culture).
B. Repeat method as above changing media and replacing acetaldehyde every 24 hours.
Results are shown as the number of cells×10^4 remaining viable at each time point. (Days 0-6)

[3] = cited from earlier work

SMILES: CC=O [acetaldehyde]
- effect on proliferation (Daudi; 250 uM acetaldehyde): reduction in the rate of proliferation
- cell number as % of starting number (Daudi; higher cell density, 3 days exposure, FIG. 2): 67%
- viability at 3 days [1]: 37%
- concentrations at which significant growth inhibition occurred (CMT-64): over 500 uM
- effect on proliferation (CMT-64; 250 uM acetaldehyde): reduction in the rate of proliferation
- cell number as % of starting number (CMT-64; FIG. 2): 170%
- levels in the liver [2]: ~100 µM
- Numbers of viable cells (Daudi lymphoma cells; 100 μM closed, 4S hr): 280000 mL⁻¹
- Numbers of viable cells (Daudi lymphoma cells; 100 μM closed, 22 hr): 230000 mL⁻¹
- Numbers of viable cells (Daudi lymphoma cells; 100 μM closed, 68 hr): 370000 mL⁻¹
- Numbers of viable cells (Daudi lymphoma cells; 100 μM open, 22 hr): 260000 mL⁻¹
- Numbers of viable cells (Daudi lymphoma cells; 100 μM open, 68 hr): 510000 mL⁻¹
- cell killing (Daudi lymphoma cells; 100 μM, 6 days exposure): high levels of cell death
- cell killing (Daudi lymphoma cells; 100 μM, by 68 hours): no cell death but some inhibition of the rate of growth
- number of cells remaining viable (Daudi lymphoma cells; 100 μM, day 1): 25 ×10^4
- number of cells remaining viable (Daudi lymphoma cells; 100 μM, day 2): 28 ×10^4
- number of cells remaining viable (Daudi lymphoma cells; 100 μM, day 3): 32 ×10^4
- number of cells remaining viable (Daudi lymphoma cells; 100 μM, day 4): 26 ×10^4
- number of cells remaining viable (Daudi lymphoma cells; 100 μM, day 5): 19 ×10^4
- number of cells remaining viable (Daudi lymphoma cells; 100 μM, day 6): 2 (two) ×10^4
- number of cells remaining viable (Daudi lymphoma cells; 250 μM, day 1): 31 ×10^4
- number of cells remaining viable (Daudi lymphoma cells; 250 μM, day 2): 25 ×10^4
- number of cells remaining viable (Daudi lymphoma cells; 250 μM, day 3): 14 ×10^4
- number of cells remaining viable (Daudi lymphoma cells; 250 μM, day 4): 13 ×10^4
- number of cells remaining viable (Daudi lymphoma cells; 250 μM, day 5): 0 ×10^4
- cell killing (Daudi lymphoma cells; 500 μM and above, 3-4 days exposure): high levels of cell death
- Numbers of viable cells (Daudi lymphoma cells; 500 μM closed, 4S hr): 180000 mL⁻¹
- Numbers of viable cells (Daudi lymphoma cells; 500 μM closed, 22 hr): 200000 mL⁻¹
- Numbers of viable cells (Daudi lymphoma cells; 500 μM closed, 68 hr): 40000 mL⁻¹
- Numbers of viable cells (Daudi lymphoma cells; 500 μM open, 4S hr): 210000 mL⁻¹
- Numbers of viable cells (Daudi lymphoma cells; 500 μM open, 22 hr): 220000 mL⁻¹
- Numbers of viable cells (Daudi lymphoma cells; 500 μM open, 68 hr): 40000 mL⁻¹
- number of cells remaining viable (Daudi lymphoma cells; 500 μM, day 1): 31 ×10^4
- number of cells remaining viable (Daudi lymphoma cells; 500 μM, day 2): 16 ×10^4
- number of cells remaining viable (Daudi lymphoma cells; 500 μM, day 3): 11 ×10^4
- number of cells remaining viable (Daudi lymphoma cells; 500 μM, day 4): 3 ×10^4
- number of cells remaining viable (Daudi lymphoma cells; 500 μM, day 5): 0 ×10^4
- cell killing (Daudi lymphoma cells; 500 μM, within 3 days): nearly all the cells are dead
- number of cells remaining viable (Daudi lymphoma cells; 750 μM, day 1): 28 ×10^4
- number of cells remaining viable (Daudi lymphoma cells; 750 μM, day 2): 18 ×10^4
- number of cells remaining viable (Daudi lymphoma cells; 750 μM, day 3): 5 ×10^4
- number of cells remaining viable (Daudi lymphoma cells; 750 μM, day 4): 2 ×10^4
- number of cells remaining viable (Daudi lymphoma cells; 750 μM, day 5): 0 ×10^4
- Numbers of viable cells (Daudi lymphoma cells; 1000 μM closed, 4S hr): 30000 mL⁻¹
- Numbers of viable cells (Daudi lymphoma cells; 1000 μM closed, 22 hr): 140000 mL⁻¹
- Numbers of viable cells (Daudi lymphoma cells; 1000 μM closed, 68 hr): 0 mL⁻¹
- Numbers of viable cells (Daudi lymphoma cells; 1000 μM open, 4S hr): 80000 mL⁻¹
- Numbers of viable cells (Daudi lymphoma cells; 1000 μM open, 22 hr): 180000 mL⁻¹
- Numbers of viable cells (Daudi lymphoma cells; 1000 μM open, 68 hr): 20000 mL⁻¹
- cell killing (Daudi lymphoma cells; 1000 μM, within 3 days): kill all the cells
- concentrations of acetaldehyde in the breath ([3]; after ethanol consumption, different patient groups): 0.005 to 1.3 µM
- systemic concentrations of acetaldehyde ([3]; volunteers consuming alcohol with an hepatic ALDH inhibitor): up to 240 uM
